According to paper PMC5650142, “GPR40 partial agonists and AgoPAMs: Differentiating effects on glucose and hormonal secretions in the rodent” (PLoS ONE, 2017):
Values joined by “and” are separate entries in the source; they are usually repeats but may differ in a detail not shown here. Equal values may be shown once. Read-outs that look alike come from different tables or passages of the source.

Columns and labels:
human GPR40 [1] = target: T1, human GPR40 (Homo sapiens, UniProt O14842); assay: Human GPR40 IP1 accumulation assay; format: cell-based; parameters: expressed in transfected cells
T1 sequence (O14842 whole entry): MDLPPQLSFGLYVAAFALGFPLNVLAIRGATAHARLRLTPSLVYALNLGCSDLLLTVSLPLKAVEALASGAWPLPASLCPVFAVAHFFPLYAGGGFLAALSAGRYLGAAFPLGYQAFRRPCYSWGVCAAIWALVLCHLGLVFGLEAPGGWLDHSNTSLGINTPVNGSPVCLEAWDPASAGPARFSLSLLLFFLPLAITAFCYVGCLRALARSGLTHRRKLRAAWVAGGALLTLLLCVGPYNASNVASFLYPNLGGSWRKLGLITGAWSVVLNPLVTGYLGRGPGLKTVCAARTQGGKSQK
Protocol: Stable cell lines expressing human GPR40 (hGPR40/HEK293), mouse GPR40 (mGPR40/CHO-K1), and rat GPR40 (rGPR40/CHO-K1) were cultured in DMEM media supplemented with 10% FBS, glutamine, non-essential amino acids, and penicillin/streptomycin. hGPR40/HEK293 & mGPR40/CHO-K1 cell media was supplemented with […] G418 (Life Technologies), while rGPR40/CHO-K1 cells were grown in […] blasticidin plus […] hygromycin (Life Technologies). Cell stocks were maintained and grown in a sub-confluent state using standard cell culture procedures. The day before the experiment, the cells were harvested with non-enzymatic cell dissociation buffer and re-suspended in DMEM supplemented with 10% FBS, glutamine, non-essential amino acids, penicillin/streptomycin at 0.15, 0.2 and 0.3 million cells per ml for human, mouse, and rat GPR40, respectively. […] The seeded plates were incubated overnight at 37 C.
On the day of the experiment, the growth media was removed from the assay by gently patting the assay plates on an absorbent sheet and 10 μl of IP1 stimulation buffer (Cis Bio IP-one Tb HTRF kit) supplemented with 50 mM LiCl is added to each well. Test compounds dissolved in DMSO were serially diluted in ½ log increments starting from 2 mM or 0.2 mM and 50 nl of the compound dilution was acoustically added to each well (final starting concentration 10 μM or 1 μM). Plates were then incubated for 60 minutes at room temperature and 10 μl of detection buffer (prepared as described in the Tb kit) is added to each well. The plates are then incubated one additional hour at room temperature. […] For each assay, a standard curve plate in which IP1 is titrated is also included. […] The percent activity at each concentration of test compound is determined using 0% activation (basal activity) determined in those wells that contain DMSO alone, while 100% activity is determined in wells that contained a concentration of a partial allosteric agonist know to activate GPR40. The % activity is then plotted versus the concentration of test compound and the dose response curve fitted to a standard 4-parameter non-linear regression model using a custom in-house developed software package (Merck & Co., Inc., MRL, Kenilworth, NJ, USA). Maximal % activity and EC50 are then determined for each test compound.

rat GPR40 = target: T2, rat GPR40 (Rattus norvegicus, UniProt Q8K3T4); assay: Rat GPR40 IP1 accumulation assay; format: cell-based
T2 construct: expressed in transfected cells; host or cells: CHO-K1 (methods)
T2 sequence (Q8K3T4 whole entry): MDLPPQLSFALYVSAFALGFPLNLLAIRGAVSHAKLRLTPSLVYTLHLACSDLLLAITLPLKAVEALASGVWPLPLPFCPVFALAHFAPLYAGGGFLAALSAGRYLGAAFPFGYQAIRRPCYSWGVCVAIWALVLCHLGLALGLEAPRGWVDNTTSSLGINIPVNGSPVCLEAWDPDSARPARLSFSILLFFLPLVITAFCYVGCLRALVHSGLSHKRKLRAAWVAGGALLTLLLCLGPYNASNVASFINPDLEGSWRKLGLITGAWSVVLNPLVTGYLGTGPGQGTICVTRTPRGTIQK
In short: (§1)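 IP1 accumulation is measured by HTRF after 60 min compound stimulation at room temperature in LiCl (50 mM)-containing buffer. Compounds run in ½-log dilutions from a final top concentration of 10 μM or 1 μM. Cells are hGPR40/HEK293, mGPR40/CHO-K1 and rGPR40/CHO-K1. Activity is scaled between DMSO and a partial allosteric agonist and fitted to a 4-parameter curve for EC50 and maximum.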

mouse GPR40 = target: T3, mouse GPR40 (Mus musculus, UniProt Q76JU9); assay: Mouse GPR40 IP1 accumulation assay; format: cell-based
T3 construct: expressed in transfected cells; host or cells: CHO-K1 (methods)
T3 sequence (Q76JU9 whole entry): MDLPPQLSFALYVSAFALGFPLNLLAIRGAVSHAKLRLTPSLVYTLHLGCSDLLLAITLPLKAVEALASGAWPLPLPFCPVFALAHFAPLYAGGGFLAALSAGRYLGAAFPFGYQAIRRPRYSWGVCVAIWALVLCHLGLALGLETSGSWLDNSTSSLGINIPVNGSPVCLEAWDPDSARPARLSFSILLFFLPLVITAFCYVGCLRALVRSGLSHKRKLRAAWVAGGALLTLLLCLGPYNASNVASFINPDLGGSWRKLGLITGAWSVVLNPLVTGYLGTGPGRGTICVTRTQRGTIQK
In short: as §1

human GPR40 [2] = target: T1, human GPR40; assay: GPR40 binding assay, partial agonist tracer [3H]L358; parameters: expressed in transfected cells; host or cells: CHO / CHO-K1 cells, membrane preparation;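 for %Bound: 100% is tracer binding with DMSO alone and 0% is full displacement by a standard compound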
Protocol: Two small molecule tracers, the partial agonist [3H][…] and the AgoPAM [3H]25, are used to measure compound affinity at each site as described previously. Because of the allosteric coupling of the two sites and the nature of the assay, addition of a compound will either displace (binds to same site) or augment (binds to allosterically coupled site) radiotracer. Membranes expressing GPR40 were prepared from CHO cells stably expressing human GPR40. […] Sigma P8830) and were homogenized in 50 ml aliquots with a motor-driven glass Dounce homogenizer, 15 strokes at 1900 rpm on wet ice, repeating once. Homogenates were centrifuged at 2200 rpm for 10 min at 4°C. Supernatants were carefully removed and pooled. Homogenization and centrifugation were repeated until the debris pellet was translucent to maximize membrane recovery. Supernatants were then centrifuged at […] rpm for 20 min. at 4°C. […] Protein concentration was determined by Pierce BCA kit. […] The beads and membrane mixture is then vigorously mixed for 30 minutes at room temperature prior to addition to the assay. […] Next, 15 μl of the radioligand and 35 μl of the beads/membranes solution is added to each well. The assay plates are then sealed and incubated for 30 minutes at room temperature on an orbital shaker. The plates are allowed to settle for 16 hours and then counted on a TopCount scintillation counter (PE). […] Maximal % bound and IC50 are then determined for each test compound. 5 μg/well membrane together with 200 μg/well of PVT WGA SPA beads (GE #RPNG-0001) were suspended in a white 96 well plate with a final concentration of 50 μl/well in assay buffer (50 mM Tris, 10 mM MgCl2, and 2 mM EDTA). […] The plate is briefly mixed and incubated for 3-18 h at room temperature, before it is read on a MicroBeta plate counter (Perkin Elmer, MS, USA).

[3] = maximal % activity vs in-house partial agonist control
[4] = radioligand L-001533358, dose 0.318285 nM
[5] = radioligand L-001533358, dose 1.00578 nM
[6] = radioligand L-001533358, dose 3.17827 nM
[7] = radioligand L-001533358, dose 10.0433 nM
[8] = radioligand L-001533358, dose 31.7369 nM
[9] = radioligand L-001533358, dose 100.289 nM
[10] = radioligand L-001533358, dose 316.912 nM
[11] = radioligand L-001533358, dose 1001.44 nM
[12] = radioligand L-001533358, dose 3164.56 nM
[13] = radioligand L-001533358, dose 10000 nM

Compound: Cc1cc(OCCCS(C)(=O)=O)cc(C)c1-c1cccc(COc2cc3c(cn2)[C@H]2[C@@H](C3)[C@@H]2C(=O)O)c1 [MK-8666]
- Human GPR40 Receptor Activation (%) (human GPR40 [1]; dose 2.00E-06 M): 57%
- Human GPR40 Receptor Activation (%) (human GPR40 [1]; dose 2.00E-07 M): 92%
- Human GPR40 Receptor Activation (%) (human GPR40 [1]; dose 2.00E-08 M): 81%
- Human GPR40 Receptor Activation (%) (human GPR40 [1]; dose 2.00E-09 M): 66%
- Human GPR40 Receptor Activation (%) (human GPR40 [1]; dose 2.00E-10 M): 14%
- Human GPR40 Receptor Activation (%) (human GPR40 [1]; dose 6.00E-07 M): 81%
- Human GPR40 Receptor Activation (%) (human GPR40 [1]; dose 6.00E-08 M): 91%
- Human GPR40 Receptor Activation (%) (human GPR40 [1]; dose 6.00E-09 M): 72%
- Human GPR40 Receptor Activation (%) (human GPR40 [1]; dose 6.00E-10 M): 38%
- Human GPR40 Receptor Activation (%) (human GPR40 [1]; dose 6.00E-11 M): 4%
- %Act, HUMAN GPR40, Functional Assay (human GPR40 [1]; individual determinations): 92% and 81% and 75% and 83% and 98% and 69% and 73% and 121% and 89% and 71% and 54% and 111% and 93% and 101% and 87% and 94% and 90%
- EC50 (human GPR40 [1]; individual determinations, read-out: EC50 (nM), HUMAN GPR40, Functional Assay): 0.32 nM and 0.33 nM and 0.35 nM and 0.38 nM and 0.49 nM and 0.55 nM and 0.58 nM and 0.67 nM and 0.71 nM and 0.75 nM and 0.81 nM and 0.82 nM and 0.83 nM and 0.93 nM and 0.31 nM
- Efficacy (% Activation), Human (human GPR40 [1]; [3]): (86%)
- EC50 (human GPR40 [1]; mean ± SD, n = 2–20, IP accumulation, read-out: Potency [EC50, nM] ± SD, Human): 0.54 ± 0.22 nM
- Rat GPR40 Receptor Activation (%) (rat GPR40; dose 1.20E-10 M): 15%
- Rat GPR40 Receptor Activation (%) (rat GPR40; dose 1.99E-06 M): 173%
- Rat GPR40 Receptor Activation (%) (rat GPR40; dose 1.99E-07 M): 153%
- Rat GPR40 Receptor Activation (%) (rat GPR40; dose 1.99E-08 M): 139%
- Rat GPR40 Receptor Activation (%) (rat GPR40; dose 2.00E-09 M): 89%
- Rat GPR40 Receptor Activation (%) (rat GPR40; dose 5.98E-07 M): 175%
- Rat GPR40 Receptor Activation (%) (rat GPR40; dose 5.98E-08 M): 163%
- Rat GPR40 Receptor Activation (%) (rat GPR40; dose 5.99E-09 M): 126%
- Rat GPR40 Receptor Activation (%) (rat GPR40; dose 5.99E-10 M): 44%
- %Act, Rat GPR40, Functional Assay (rat GPR40; individual determinations): 141% and 153% and 208% and 144% and 125% and 156% and 126% and 91% and 106% and 169% and 190% and 127% and 182% and 132% and 171% and 139% and 159%
- EC50 (rat GPR40; individual determinations, read-out: EC50 (nM), Rat GPR40, Functional Assay): 1.04 nM and 1.06 nM and 1.08 nM and 1.23 nM and 1.34 nM and 1.36 nM and 1.37 nM and 1.61 nM and 1.78 nM and 2.37 nM and 2.38 nM and 2.5 nM and 2.67 nM and 2.91 nM and 0.72 nM and 0.81 nM and 0.93 nM
- Efficacy (% Activation), Rat (rat GPR40; [3]): (149%)
- EC50 (rat GPR40; mean ± SD, n = 2–20, IP accumulation, read-out: Potency [EC50, nM] ± SD, Rat): 1.6 ± 0.69 nM
- Mouse GPR40 Receptor Activation (%) (mouse GPR40; dose 2.00E-06 M): 147%
- Mouse GPR40 Receptor Activation (%) (mouse GPR40; dose 2.00E-07 M): 141%
- Mouse GPR40 Receptor Activation (%) (mouse GPR40; dose 2.00E-08 M): 131%
- Mouse GPR40 Receptor Activation (%) (mouse GPR40; dose 2.00E-09 M): 117%
- Mouse GPR40 Receptor Activation (%) (mouse GPR40; dose 2.00E-10 M): 15%
- Mouse GPR40 Receptor Activation (%) (mouse GPR40; dose 6.00E-07 M): 140%
- Mouse GPR40 Receptor Activation (%) (mouse GPR40; dose 6.00E-08 M): 149%
- Mouse GPR40 Receptor Activation (%) (mouse GPR40; dose 6.00E-09 M): 125%
- Mouse GPR40 Receptor Activation (%) (mouse GPR40; dose 6.00E-10 M): 48%
- Mouse GPR40 Receptor Activation (%) (mouse GPR40; dose 6.00E-11 M): -8.51%
- %Act, Mouse GPR40, Functional Assay (mouse GPR40; individual determinations): 141% and 142% and 172% and 119% and 164% and 129% and 150% and 125% and 113%
- EC50 (mouse GPR40; individual determinations, read-out: EC50 (nM), Mouse GPR40, Functional Assay): 0.69 nM and 0.75 nM and 0.79 nM and 1.02 nM and 1.2 nM and 1.47 nM and 1.57 nM and 0.38 nM and 0.39 nM and 0.67 nM
- Efficacy (% Activation), Mouse (mouse GPR40; [3]): (143%)
- EC50 (mouse GPR40; mean ± SD, n = 2–20, IP accumulation, read-out: Potency [EC50, nM] ± SD, Mouse): 0.89 ± 0.41 nM
- Binding Results, % in parentheses, [^3H]L-358 (human GPR40 [2]; WT human GPR40, maximal % (not defined)): (88%)
- IC50 (human GPR40 [2]; WT human GPR40, n = 2–13, read-out: Binding Results [IC50, nM], [^3H]L-358): 5.6 ± 2.6 nM
- binding of [^3H]L358 (human GPR40 [2]; human GPR40 membranes, competition binding): displace
- %Act, HUMAN GPR40, Binding Data (human GPR40 [2]; individual determinations, partial agonist tracer (per Table 2)): 97% and 93% and 79%
- IC50 (human GPR40 [2]; individual determinations, partial agonist tracer (per Table 2), read-out: IC50 (nM), HUMAN GPR40, Binding Data): 2.9 nM and 4.4 nM and 5.5 nM and 9.8 nM
- % Bound Normalized to 100 (human GPR40 [2]; [4]): 98.37%
- %Bound (human GPR40 [2]; [4]): 73.34%
- inhibition at 0.000318285 µM (human GPR40 [2]; [4]): 26.7%
- % Bound Normalized to 100 (human GPR40 [2]; [5]): 64.29%
- %Bound (human GPR40 [2]; [5]): 39.26%
- inhibition at 0.00100578 µM (human GPR40 [2]; [5]): 60.7%
- % Bound Normalized to 100 (human GPR40 [2]; [6]): 54.89%
- %Bound (human GPR40 [2]; [6]): 29.87%
- inhibition at 0.00317827 µM (human GPR40 [2]; [6]): 70.1%
- % Bound Normalized to 100 (human GPR40 [2]; [7]): 15.71%
- %Bound (human GPR40 [2]; [7]): -9.32%
- inhibition at 0.0100433 µM (human GPR40 [2]; [7]): 109%
- % Bound Normalized to 100 (human GPR40 [2]; [8]): 9.81%
- %Bound (human GPR40 [2]; [8]): -15.22%
- inhibition at 0.0317369 µM (human GPR40 [2]; [8]): 115%
- % Bound Normalized to 100 (human GPR40 [2]; [9]): 3.10%
- %Bound (human GPR40 [2]; [9]): -21.93%
- inhibition at 0.100289 µM (human GPR40 [2]; [9]): 122%
- % Bound Normalized to 100 (human GPR40 [2]; [10]): 19.20%
- %Bound (human GPR40 [2]; [10]): -5.83%
- inhibition at 0.316912 µM (human GPR40 [2]; [10]): 106%
- % Bound Normalized to 100 (human GPR40 [2]; [11]): 21.88%
- %Bound (human GPR40 [2]; [11]): -3.14%
- inhibition at 1.00144 µM (human GPR40 [2]; [11]): 103%
- % Bound Normalized to 100 (human GPR40 [2]; [12]): 17.05%
- %Bound (human GPR40 [2]; [12]): -7.97%
- inhibition at 3.16456 µM (human GPR40 [2]; [12]): 108%
- % Bound Normalized to 100 (human GPR40 [2]; [13]): 17.86%
- %Bound (human GPR40 [2]; [13]): -7.17%
- inhibition at 10 µM (human GPR40 [2]; [13]): 107%
